Reference: US10463664B2, “Inhibitors of HSV nucleotidyl transferases and uses therefor” (Saint Louis University, priority 2013, dated 2019)

How the values were obtained:
[1] = Single dose pharmacokinetic study after peroral ciclopirox olamine; format: in vivo, BALB/c mice; conditions: 100 mg/kg oral gavage
Experimental: Single dose pharmacokinetic study after peroral treatment with ciclopirox Olamine. Six week old BALB/c mice were treated with 100 mg/kg ciclopirox olamine by oral gavage. This is well below the oral toxicity level in mice of 1740 mg/kg (Spectrum Chemicals MSDS). At 15 min, 30 min, 1 h, 3 h and 5 h post-treatment, blood was collected from pairs of mice and the serum separated. Mice were then euthanized and trigeminal ganglia (TG), brainstems and corneas were dissected and frozen until tissue extraction was performed and the extracts analyzed by mass spectroscopy. Standardization to ciclopirox olamine was achieved using compound spiked into a matrix of relevant tissue homogenate from untreated mice.
Ciclopirox olamine tissue concentrations (μM) after oral gavage. Ciclopirox olamine has previously been used to treat mice by oral gavage (25 to 40 mg/kg) for up to 60 days, but, assessment of penetration into the cornea and nervous system after oral gavage needed to be evaluated as well as tissue concentration over time to estimate appropriate dosing. In a single dose pharmacokinetic study, mice were treated with 100 mg/kg ciclopirox olamine by oral gavage. Pairs of mice were euthanized at various times post-treatment. Ciclopirox olamine concentrations in plasma, corneas, trigeminal ganglia and brainstems were determined by mass spectroscopy (FIG. 10). […] Ciclopirox olamine concentrations in cornea and nervous system tissues were only ˜5-fold lower than that in the plasma and remained above the estimated EC90 until 5 hours post-treatment.

HSV-1 = assay: Topical treatment of mice infected with HSV-1 on the cornea; format: in vivo; conditions: summary statement
Experimental: Compounds were administered at 1 μg/eye in 10% DMSO. Two mice were treated with 10% DMSO as a negative control. The corneal surface was swabbed once per day on days 1, 2, 4 and 5 post-infection and titer of virus shed from the epithelium was determined by standard plaque assay. On the fifth day post-infection mice were euthanized and the trigeminal ganglia (TG) and brainstems were dissected. The tissues were disrupted and virus in them quantified by plaque assay. […] Weight of individual mice was recorded daily. […] Saline was a negative control. On the fifth day post-infection mice were euthanized and the trigeminal ganglia (TG) and brainstems were dissected. The tissues were disrupted and virus in them quantified by plaque assay.
Body weight was monitored daily post-infection as a sensitive indicator of overall health (FIG. 12).
Infected mice treated with saline served as a negative control.

[2] = mouse, in vivo; cited from earlier work
HCMV strain AD169 [3] = assay: Anti-HCMV CPE inhibition assay (crystal violet) in HFFs; format: cell-based, human cytomegalovirus; conditions: Human betaherpesvirus 5, AD169, 336 h, 14 days, read-out: EC50 against HCMV, CPE inhibition assay
Experimental: (§1) Anti-HCMV CPE inhibition and cytotoxicity assays. HFFs were infected with HCMV strain AD169 in the presence of serial dilutions of the compounds from 0.0192 to 60 μM. Fourteen days later the monolayers were stained with crystal violet, and retained cell density was quantified using a multiplate autoreader (BioTek). Cytotoxicity was measured the same way, except that the cells were uninfected and neutral red internalization by viable cells was measured.
(§2) Antiviral efficacy against HCMV. The ability of select HSV inhibitors to inhibit replication of another major human herpesvirus pathogen, human cytomegalovirus (HCMV) (65) was tested. This was based on the inhibitors strong suppression of HSV-1 and HSV-2 and the prediction that other members of the herpesvirus family would be sensitive to NTS inhibitors due to their shared DNA replication mechanism. Compounds #41, 46, 49, 55, 56, and 59 and the FDA-approved anti-HCMV drug ganciclovir were evaluated with crystal violet CPE and neutral red toxicity assays in HFFs. HFFs were infected with HCMV in the presence of serial dilutions of the compounds that were most inhibitory for HSVs. After 14 days the monolayers were stained and cell density was determined by OD reading. Compound cytotoxicity for uninfected cells was determined in the same manner except that neutral red uptake by viable cells was measured. […] The TI values for the four NTS inhibitors of HCMV ranged from 4 for compound #41 to 38 for #56. Therefore, NTS inhibitors can suppress HCMV replication in addition to inhibiting the HSVs.

HCMV strain AD169 [4] = assay: HCMV plaque reduction assay in HFFs; format: cell-based, human cytomegalovirus; conditions: Human betaherpesvirus 5, AD169, 240 h, 10 days, read-out: EC50 against HCMV, plaque reduction assay
Experimental: (§3) HCMV plaque reduction EC50 and toxicity assays. Low passage primary HFFs were infected with HCMV strain AD169 in the presence of serial dilutions of the compounds from 0.032 to 100 μM. Ten days later the monolayers were stained with 1% neutral red solution in PBS. After rinsing, plaques were counted using a stereomicroscope and the EC50 was interpolated from the data. Cytotoxicity was measured using a plate-based assay in which compounds were added to HFFs at 0.032 to 100 μM. At the end of the incubation period, plates were stained for 1 h with a neutral red solution in PBS. The stain was then removed, the plates rinsed in PBS and dried, and dye internalized by viable cells was determined at OD550. CC50 values were interpolated from the data.
(§4) Compounds #41, 46, 49, 55, 56, and 59 and the FDA-approved, anti-HCMV drug ganciclovir were subsequently evaluated with plaque reduction and toxicity assays in HFFs. HFFs were infected with HCMV in the presence of serial dilutions of the compounds. After 10 days the cultures were stained with neutral red and plaques were counted. Compound cytotoxicity for uninfected cells was determined in the same manner except that neutral red uptake by viable cells was measured by optical density. […] The TI values for the five NTS inhibitors of HCMV ranged from 5 for compound #46 to 17 for #55 and 59. Therefore, NTS inhibitors can suppress HCMV replication in addition to inhibiting the HSVs.

[5] = Neutral red cytotoxicity assay in HFFs (10 day, with plaque reduction assay); format: cell-based, human; conditions: human, uninfected primary human foreskin fibroblasts (HFFs), 10 day assay
Experimental: as §3, §4

[6] = Neutral red cytotoxicity assay in uninfected HFFs (14 day, with CPE assay); format: cell-based, human; conditions: human, uninfected human foreskin fibroblasts (HFFs)
Experimental: as §1, §2

EC50 (HCMV strain AD169 [3]) [µM]	EC50 (HCMV strain AD169 [4]) [µM]	Structure (SMILES)	Concentrations in cornea and nervous system tissues, fold lower than plasma [1] [fold]	Plasma concentration at time of uptake [1] [µM]	Free plasma concentration after 5 hours, fold above the estimated EC90 against HSV-1 ([1]; 5 hours) [fold]	Overall health of mice as shown by maintenance of body weight (HSV-1)	Oral toxicity level in mice [2] [mg/kg]	CC50 at 10 days [5] [µM]	CC50 at 14 days [6] [µM]
–	–	Cc1cc(C2CCCCC2)n(O)c(=O)c1 [Compound 41-E, Ciclopirox ethanolamine]	~5	~30	10	significantly improved the overall health	1740	–	–
0.33	3.2	Nc1nc(O)c2ncn(COC(CO)CO)c2n1 [Ganciclovir, reference compound]	–	–	–	–	–	> 100	> 300
